We go through 8 compounds from patent US20080020041A1, “Enteric Coated Compositions that Release Active Ingredient(s) in Gastric Fluid and Intestinal Fluid” (priority 2004, published 2008).

Structures can show the parent of a compound that is named as a salt. Where two headings read alike, the source gives them in different places.

How the values of data set [1] were obtained:
All data fittings were performed on data from immediate-release formulations using WinNonlin software, version 3.2 (Pharsight Corporation, Mountain View, Calif.).

Data set [2] is described as follows: Hydrochlorothiazide bio-study: urinary excretion, urine output and side effects after IR or GRD. Type of data set: in vivo, human. To be noted: same dose, drug released in gastric fluid (GRD).
Experimental: Two formulations for hydrochlorthiazide (an immediate release formulation (IR) and a gastric retention device (GRD) containing sustained release formulations (SR)) were administered in the bio-study (bioavailability study). A commercial tablet containing 50 mg of HCTZ was used as an IR control, and spray-coated beads equivalent to 50 mg of HCTZ were formulated for slow drug release (SR) and included in the GRF. Bioavailability and pharmacodynamics of HCTZ from a GRD were compared to those from an IR.
Monitoring concentrations of hydrochlorthiazide in the urine of healthy adult volunteers allowed comparison of the relative bioavailability of hydrochlorthiazide from the GRD formulation and from a conventional tablet. […] An IR was given once and the GRD was repeated twice to test the reproducibility of the new dosage form. A 50-mg dose was chosen for the study because it was in the range of the recommended dose from the PDR (Physician's Desk References) and it produced concentrations high enough to make HPLC analysis efficient. Six subjects participated in the study, 4 healthy males and 2 healthy females. They were not allowed any food or drink containing caffeine, nor alcohol or other medications. Smokers and vegetarians were not included. […] The volume of urine collected was measured in order to calculate total amount of drug recovered.
The conditions of data set [3]: fitted from available plasma data (PDR), used in simulations. An excerpt:
These parameters are volume of distribution divided by fraction of dose absorbed (V/F), absorption rate constant (ka), and elimination rate constant (kel).

For data set [4] the following is noted: commercial mixed pellets, cited from earlier work.
For data set [5] the following is noted: cited from earlier work.
For data set [6] the following is noted: disintegrating tablets from pellets coated with cellulose acetate phthalate; cited from earlier work.
For data set [7] the following is noted: 60 mg immediate-release riboflavin, fed subjects; cited from earlier work.
The conditions of data set [8]: prolonged release wax matrix formulation; cited from earlier work.
The mark [9] stands for this setting: fitted to literature data of immediate-release formulation.

With `Cc1cc2nc3c(=O)[nH]c(=O)nc-3n(C[C@H](O)[C@H](O)[C@H](O)COP(=O)(O)O)c2cc1C` [Riboflavin-5-phosphate], in data set [1] (setting [9]), the “absorption rate constant” value stood at 3.67 and the kel worked out at 0.32 h⁻¹.
For the compound `NS(=O)(=O)c1cc2c(cc1Cl)NCNS2(=O)=O` [Hydrochlorothiazide], the Adverse reactions reported result in data set [2] is given as “No adverse reactions were reported”.
The compound `C[C@H](N)Cc1ccccc1` [d-Amphetamine] yielded a ka in data set [3] of 0.744 h⁻¹. Besides, the “Observed Cmax” value was 40.2 ng/mL in data set [4] (Fasted, 30 mg) and 25.3 ng/mL in data set [4] (Fed, 20 mg).
For `CC(=O)Oc1ccc(C(c2ccc(OC(C)=O)cc2)c2ccccn2)cc1` [bisacodyl], in data set [5] (coating of mixture of Eudagrit L and Eudgrit NE), the “Liberation of bisacodyl in 0.1 M HCl” value was “approximately 4 % w/w”. The “Liberation of bisacodyl in phosphate buffer within 45 min” value in data set [5] (pH 6.8, polymer 1) is listed as 100%; in data set [5] (pH 6.8, polymer 2), 40%. The “Liberation of bisacodyl in phosphate buffer” value in data set [5] (pH 7.2, polymer 2) was 100%. Further, the “Bisacodyl liberated in acidic media after tableting” value in data set [5] (pellets coated with 25% w/w of one of the new polymers) was 4-5 % w/w.
For `CNC(=C[N+](=O)[O-])NCCSCc1ccc(CN(C)C)o1` [Ranitidine hydrochloride], in data set [1] (human, in vivo), the “absorption rate constant” value came to 0.641 and the kel is 0.239 h⁻¹.
Regarding `Cc1cc(NS(=O)(=O)c2ccc(N)cc2)no1` [sulfametoxazole], in data set [6], the “Drug liberated within 2 hours in artificial gastric fluid” value was “more than 10%”.
On to `Cc1cc2nc3c(=O)[nH]c(=O)nc-3n(C[C@H](O)[C@H](O)[C@H](O)CO)c2cc1C` [riboflavin], for which, in data set [7], the Bioavailability is recorded as 36.4%.
On to `CC1(C)S[C@@H]2[C@H](NC(=O)[C@H](N)c3ccc(O)cc3)C(=O)N2[C@H]1C(=O)O` [amoxicillin], for which the “Amoxicillin released in 6 hours” value in data set [8] is 19%.
